Reference: patent US10316037B1, “Compounds and methods for treating cancer” (YALE UNIVERSITY, priority 2016, dated 2019)
pIC50: −log10 of the molar value.

Tested on: cancer cell lines
Experiment: Anti-cancer activity, CellTiter-Glo luminescence after 72 hours compound treatment
Assay type: cell-based
Settings: cell line not stated, 4-parameter fit inflection point (IC50)
Description: Compounds to be tested for anti-cancer activity were submitted dry, dissolved to 10 mM stocks in DMSO, and stored protected from light at −80° C. until use. DMSO vehicle control wells, and 3 fold serial dilutions of compounds from 10 mM to 6.2 nM were prepared in 384 well plates. Kinamycin and tamoxifen were also added as controls in this manner.
LN2 aliquots of cancer cells (indicated in the tables of FIGS. 3 and 4) were cultured at YCMD and plated in Corning 3707 TC plates at 400 cells/well initial seeding density in 20 uL of growth medium. Cells were incubated overnight at 37′C in a humidified 5% CO2 incubator, and treated with compounds.
20 nL of compound was dispensed into the assay plates using a 384-well pin tool on the Tecan Aquarius. Final assay compound treatments ranged from 10 uM to 6.2 pM, 0.1% DMSO. […]
For assay readout CellTiter-Glo (Promega) was prepared according to manufacturer's instructions and 20 uL/well was added to assay plates using a MultiDrop. Luminescence was read on an Envision plate reader (Perkin Elmer) with 0.3 second sampling time per well after a 10 min. room temperature incubation in the dark.
Toxic effects have low luminescence signal relative to the vehicle control […]. Raw data (luminescence counts per second) were normalized to percent effect by the formula: […]. […]

| pIC50 | Compound |
| --- | --- |
| 7.96 | CSCCCNC(=O)c1csc(-c2csc(Cn3c(CC[C@H](C)NC(=O)OC(C)(C)C)c4c(cc3=O)C3(CC3)NC4=O)n2)n1 [compound S4] |
| 7.46 | C[C@H](N)CCc1c2c(cc(=O)n1Cc1nc(-c3nc(C(=O)NCCN(C)C)cs3)cs1)C1(CC1)NC2=O [compound 17a] |
